Test results as given in patent US11284835B2, “Method for assessing pain caused by administration of drug solution, and method for selecting drug solution administration” (TERUMO KABUSHIKI KAISHA, priority 2016, dated 2022).

How the values were obtained:
human = conditions: cited from earlier work
rat = experiment: Electromyogram (EMG) of the myoelectric response caused by drug solution administration into the plantar subcutaneous of anesthetized rats; type: in vivo
Excerpt: In the embodiment illustrated in FIG. 1, a subject (experimental animal) used for assessment of pain caused by administration of a drug solution is a rat 12. Conditions of the rat 12 that can be used are, for example, an age in range of 7 to 10 weeks old, a body weight in a range of 200 to 400 g, and a strain that is SD (other strains are also possible). An acclimation and quarantine period of the rat 12 is preferably five days or longer. An anesthesia mask 13 is attached to the rat 12, and inhalation anesthesia is performed.
In order to measure the pain caused by the administration of the drug solution, a myoelectric potential of the semitendinosus muscle 12b of the thigh of the rat 12 is recorded. At the time of recording the myoelectric potential, a needle-shaped measurement electrode 24 (for example, a bipolar hook electrode) is punctured under the semitendinosus muscle 12b to be placed, and a reference electrode 26 is pasted to a thoracic skin surface 12c. Potential signals from the measurement electrode 24 and the reference electrode 26 are amplified by a high-sensitivity bioelectric amplifier 28 and transmitted to a data collection device 30.
A rat 12 serving as a subject is prepared (a preparation step), and the rat 12 is subjected to inhalation anesthesia (an anesthesia step). Examples of an applicable inhalation anesthetic include isoflurane. […] Incidentally, it is preferable to heat the rat 12 with a warming mat to keep the body temperature constant during the anesthesia.
Next, the measurement electrode 24 is placed in the semitendinosus muscle 12b of the anesthetized rat 12 (a measurement electrode placement step). […] At this time, the thigh skin at a position where contraction has been recognized is incised by about 1 cm to expose the semitendinosus muscle 12b, and then, the measurement electrode 24 is inserted.
Thereafter, the anesthetic depth is kept constant. […]
Once such a myoelectric potential waveform is obtained, the measurement step is performed in order to assess (quantify) the pain caused by the drug solution administration. […]

[Cl-].[Na+] [NaCl]
magnitude of pain (VAS) over time (human; 5% NaCl injected (FIG. 6A)): great pain | magnitude of pain (EMG intensity) (rat; 10% NaCl, plurality of different administration rates (FIG. 9B)): varies depending on a difference in the administration rate | pain (EMG intensity obtained from myoelectric response) (rat; NaCl concentration 5% or more (FIG. 6B)): significantly increases

N[C@@H](CCC(=O)O)C(=O)O [glutamic acid]
magnitude of pain (VAS) (human; plurality of different molar concentrations (FIG. 7A, created from source graph)): the pain increases as the molar concentration of glutamic acid increases | pain (EMG intensity obtained from myoelectric response) (rat; plurality of different molar concentrations (FIG. 7B)): the pain increases as the molar concentration of glutamic acid increases
